Measured values as given in patent US20060154910A1, “Use of steroids to treat ocular disorders” (priority 2003, published 2006).

Assays:
[1] = tested on: patients with documented glucocorticoid induced ocular hypertension; test: Topical anecortave acetate in patients with glucocorticoid induced ocular hypertension (IOP); type: in vivo, human; details: patients (n=15), 1% eye drops topically three times per day for up to 12 weeks, glucocorticoid medication continued; reduced from 29 mm Hg; FIG. 1
Method: Patients (η=15) with documented glucocorticoid induced ocular hypertension were treated topically with 1% anecortave acetate eye drips three times per day for up to 12 weeks. The patients continued to receive their glucocorticoid medication.

rabbits = test: Rabbit dexamethasone acetate induced IOP elevation, topical ocular anecortave acetate; type: in vivo; details: for IOP change versus vehicle treated group: topical ocular three times a day for 2 weeks, rabbits on weekly subTenon's dexamethasone acetate 1 mg/kg, FIG. 2
Method: Three groups of rabbits received weekly subTenon's injections of dexamnethasone acetate (1 mg/kg) for 4 weeks. After two weeks, the IOPs of all three groups measured approximately […]. The rabbits were then treated with vehicle, 0.1% anecortave acetate, a 1% anecortave acetate by topical ocular dosing three times a day for the remaining 2 weeks. The IOP continued to increase in the vehicle treated group.

Structure (SMILES) | IOP after anecortave acetate treatment [1] | IOP change versus vehicle treated group (rabbits; 0.1% anecortave acetate) | IOP change versus vehicle treated group (rabbits; 1% anecortave acetate) | IOP after two weeks of glucocorticoid injections (rabbits; rabbits, weekly subTenon's injections 1 mg/kg, after two weeks, all three groups)
CC(=O)OCC(=O)[C@@]1(O)CC[C@H]2[C@@H]3CCC4=CC(=O)CC[C@]4(C)C3=CC[C@@]21C [anecortave acetate, 4,9(11)-pregnadien-17α,21-diol-3,20dione-21-acetate] | 19-22 mm Hg | significantly lowered | significantly lowered | 
CC(=O)OCC(=O)[C@@]1(O)[C@H](C)C[C@H]2[C@@H]3CCC4=CC(=O)C=C[C@]4(C)[C@@]3(F)[C@@H](O)C[C@@]21C [dexamnethasone acetate, dexamethasone acetate, reference compound] |  |  |  | approximately 5 mm Hg
